From patent publication US11690856B2, “Compounds for treating CMV related diseases” (INSERM (INSTITUT NATIONAL DE LA SANTE ET DE LA RECHERCHE …, priority 2017, dated 2023)

Experiments:
Format in all cases: in vivo, rat
CMV-infected pups [1] = assay: Righting reflex sensorimotor test; conditions: treated in utero vs untreated infected pups; P1-P20; p=0.025
Experimental: (§1) Wistar rats (Janvier Labs, France) were raised and mated at INMED Post Genomic Platform (PPGI) animal facility. Rat cytomegalovirus (rat CMV) recombinant Maastricht strain (RCMV-Δ145-147-gfp) with a green fluorescent protein (GFP) expression cassette, and its production, purification and titration, were reported previously (17). In utero icv injections were performed at E15 as previously described (9,18) in embryos from timed pregnant rats that were anaesthetized with ketamine (100 mg/kg)/xylazine (10 mg/kg). […] Microglia status was modified in the embryos in vivo with doxycycline per os given to the mother throughout pregnancy (200 mg/kg in food pellet chow, Bioserv).
(§2) For righting reflex evaluation, rat pups were placed in a supine position, and the time required to flip to the prone position was measured. For the cliff aversion reflex, animals were placed with their forepaws overhanging the edge of a board; the time required to turn >90° away from the edge was recorded. […] Generalized tonic-clonic epileptic seizures were detected visually, usually after animal handling, especially during cage changing and behavioral testing. […] For each rat, the reference electrode was inserted beneath the pinna of the assessed ear, the positive electrode beneath the skin on the vertex of the head, the ground electrode on the animal's back. […] Impedances were monitored to be below 2000Ω. […]

CMV-infected pups [2] = assay: Generalized tonic-clonic epileptic seizures, detected visually
Experimental: as §1, §2

microglia [3] = assay: Flow cytometry of brain leukocytes (CD45, CD11b/c, RT1B) for microglia status
Experimental: as §1
Leukocytes from brains obtained from anesthetized P1 or P7 pups were isolated as previously described (9). 1 to 3×10^6 leukocytes were incubated with Zombie NIR Fixable Viability kit (1:200; Bio legend) for 20 min at RT. Fc receptors were blocked using mouse anti-rat CD32 antibody (FcγII receptor, clone D34-485) for 10 min. at 4° C. to prevent against nonspecific binding. Cells were then stained with antibodies against combinations of cell surface markers as previously listed and described (9). An average of 1.3×10^5 living singlet cells were analyzed per brain equivalent on a BD LSRFortessa cell cytometer and raw data were analyzed using FACSDiva V8.0 software (BD Biosciences).

CMV-infected pups [4] = assay: Postnatal survival of pups infected with CMV in utero
Experimental: as §1
Data were expressed as means ±s.e.m. unless otherwise stated. Non-parametric Mann Whitney test (two-tailed) followed by Bonferroni correction if needed, and non-parametric Kruskall-Wallis test to detect heterogeneous distribution between groups followed by Dunn's post test for multiple comparisons. were used whenever appropriate. Univariate Cox analysis and Fisher's exact test (two-tailed) were used to compare between survival distributions and rates and parametric Student's t test was used to compare between weight gains, whereas Chi-square test with Bonferroni correction and mixed model for repeated data using PROC GLIMMIX with sas 9.4 were used for all other phenotypic comparisons between groups of animals.

microglia [5] = assay: Immunohistochemistry and cell counting of microglia (Iba1, Ed1/Cd68) in CMV-infected pup brain; conditions: P1, lateral ventricular area; per os to dam E0 to birth; CMV untreated 42.74%, MEM 14.28%
Experimental: Immunohistochemistry experiments were carried out on coronal brain slices (50-100 μm, vibratome, Microm; 14 μm, cryostat, Leica) as described previously (9) with the following primary (anti-Iba1: 1/500, Wako; anti-Cd68, Ed1 clone: 1/200, Millipore) and secondary (Alexa Fluor 568 or 647-conjugated goat anti-rabbit or anti-mouse IgGs; Life Technologies) antibodies. Hoescht 33258 (1:2000, Sigma) was used for nuclei staining.
For cell counting analyses, at least three adjacent brain sections were analyzed throughout the entire z-dimension for each sample using confocal microscopy. […] Cells were counted manually in each brain with Cell Profiler cell image analysis software (Broad Institute Cambridge, Mass., USA). For each channel of stack images, mean image intensity was measured using “MeasureImageIntensity” module and cells were identified with “IdentifyPrimaryObjects” module, in which Min and Max typical diameter of objects was set between 20 and 80 pixel units, respectively, and threshold was corrected by the mean intensity measured previously. Then, using mask images generated with the aforementioned module, colocalization between channels was evaluated with “RelateObjects” and “MaskObjects” in order to determine the number of overlapping objects. Finally, data were exported to a spreadsheet containing the number of quantified cells for each staining and of colocalizations. […]

CMV-infected pups [6] = assay: Hindlimb paralysis, determined visually
Experimental: as §1, §2

CMV-infected pups [7] = assay: Cliff aversion reflex sensorimotor test; conditions: treated in utero vs untreated infected pups; P1-P20; p<10^-4
Experimental: as §1, §2

## C[C@H]1c2cccc(O)c2C(=O)C2=C(O)[C@]3(O)C(=O)C(C(N)=O)=C(O)[C@@H](N(C)C)[C@@H]3[C@@H](O)[C@@H]21 [doxycycline]
CMV-infected pups [1]
  success to righting, odds ratio: 2.6
CMV-infected pups [2]; period of evaluation, treated in utero, p<10^-4
  decrease in risk of epileptic seizures: 5.9 fold
CMV-infected pups [2]; untreated 24%, p=0.12
  proportion of epileptic CMV-infected rats: 11%
Microglia [3]; P7, after treatment discontinuation, untreated 58.93%
  proportion of reactive CD45low/int, CD11b/c+, RT1B+ microglia (fraction IV): 55.76%
Microglia [3]; whole brain at P1, CMV untreated 13.98%, controls 0.73%
  proportion of MHC class II-positive reactive microglia (fraction IV: CD45low/int, CD11b/c+, RT1B+): 5.66%
CMV-infected pups [4]; dams treated per os throughout pregnancy, untreated 29.6%
  infected pups survived at P20: 86.1%
CMV-infected pups [4]; first three postnatal weeks, treated in utero vs untreated CMV-infected, p=0.0006
  lower risk to postnatal death: 5.1
Microglia [5]
  phagocytic activation index (PAI), ratio of Iba1+ Ed1+ cells to total Iba1+ cells: 17.32%
CMV-infected pups [6]; first three postnatal weeks, untreated 83.3%, p=0.001
  CMV-infected pups displaying hindlimb paralysis: 50%
CMV-infected pups [6]; treated vs untreated, p=0.03
  drop in risk of hindlimb paralysis: 6.2 fold
CMV-infected pups [7]
  success to cliff aversion, odds ratio: 9.9
